According to patent publication US20230381328A1, “COMPOUND FOR THE PREVENTION OR TREATMENT OF MYASTHENIA GRAVIS” (ABLEVIA BIOTECH GMBH, priority 2020, published 2023):

Test system: myasthenogenic antibody mAB 198
Assay: Peptide microarray mimotope screen, binding of mAB 198 to linear and cyclic peptides (fluorescence readout)
Parameters: species or system rat
Conditions: binding of mAB 198, relative fluorescent signal after normalization against background
Description: A custom peptide array of 30000 peptides was synthesized, with peptides of 7-19 amino acids in size; the peptides were based on substitution analyses of 176 AChR-MIR peptides with exchanges of each amino acid positions by each of the 20 common amino acids. Peptides were synthesized directly on a microarray, and screened with monoclonal antibody mAB 198 in order to obtain mimotopes with a binding strength which was improved over the human AChR alpha chain MIR-containing sequence […] (Tzartos et al, 1991; Luo et al, 2009) and over a previously published mimotope sequence ([…]), that was derived from Torpedo AchR with the help of antibody mAB 132A (Trinh et al, 2014). In particular, the wild type AChR-MIR sequence is known to structurally mimic to a certain extent the epitope recognized by myasthenogenic, unwanted and disease-causing antibodies from patients. The mimotope peptide library was designed by permutation of each single amino acid position of these two sequences with all natural amino acids in order to provide a maximally diversified collection of peptide variants. All peptides were synthesized in doublets as linear and as cyclic peptides. The aim was to obtain peptides (mimotopes) that mimic the natural epitope of myasthenogenic antibodies.
For the mimotope screen, the antibody mAB 198 (Absolute Antibody Ltd, UK) was used. This is a prototype antibody that was generated in rats using human AChR (Tzartos et al, 1983; Asher et al, 1993). […] Therefore, mAB198 was used as a surrogate probe to screen for new mimotopes that are capable of mimicking the corresponding AChR-MIR epitope or portions of the epitope.
As a readout, binding of mAB 198 to the 30000 linear and cyclic peptides was measured by fluorescence readout, and peptides were ranked according to their relative fluorescent signal after normalization against the background.
The top-ranked 100 linear and cyclic mimotopes are listed in Table 1 and Table 2 above, respectively.

Substance: 123 (RGNPADY) [compound 123]
- relative signal [%] (cyclic mimotopes): 23.8%

Substance: 20 (RLHWNPADY) [compound 20]
- relative signal [%] (linear mimotopes): 20.2%

Substance: 105 (RLNPADY) [compound 105]
- relative signal [%] (cyclic mimotopes): 42.3%

Substance: 43 (IDVRLRYNP) [compound 43]
- relative signal [%] (linear mimotopes): 12.2%

Substance: 163 (RWNPADR) [compound 163]
- relative signal [%] (cyclic mimotopes): 11.0%

Substance: 66 (RHNPADY) [compound 66]
- relative signal [%] (linear mimotopes): 8.9%

Substance: 172 (LRWNPADYR) [compound 172]
- relative signal [%] (cyclic mimotopes): 10.3%

Substance: 113 (LRRNPAD) [compound 113]
- relative signal [%] (cyclic mimotopes): 28.2%

Substance: 176 (RLRWNPADYGP) [compound 176]
- relative signal [%] (cyclic mimotopes): 10.0%

Substance: 27 (RYNPADY) [compound 27]
- relative signal [%] (linear mimotopes): 16.5%

Substance: 161 (GGSLRYNPADY) [compound 161]
- relative signal [%] (cyclic mimotopes): 11.5%

Substance: 65 (GNPADYGGI) [compound 65]
- relative signal [%] (linear mimotopes): 8.9%

Substance: 153 (RPRWNPADY) [compound 153]
- relative signal [%] (cyclic mimotopes): 12.4%

Substance: 58 (RPNPADY) [compound 58]
- relative signal [%] (linear mimotopes): 9.5%

Substance: 3 (NPADYHG) [compound 3]
- relative signal [%] (linear mimotopes): 59.3%

Substance: 30 (LRWNPADYH) [compound 30]
- relative signal [%] (linear mimotopes): 15.3%

Substance: 156 (RANPADY) [compound 156]
- relative signal [%] (cyclic mimotopes): 12.2%

Substance: 25 (LRLNPADYG) [compound 25]
- relative signal [%] (linear mimotopes): 17.3%

Substance: 83 (RLRGNPADY) [compound 83]
- relative signal [%] (linear mimotopes): 6.9%

Substance: 55 (NPADYDG) [compound 55]
- relative signal [%] (linear mimotopes): 10.3%

Substance: 158 (RPNPADYGG) [compound 158]
- relative signal [%] (cyclic mimotopes): 11.9%

Substance: 94 (RLRYNPADY) [compound 94]
- relative signal [%] (linear mimotopes): 6.5%

Substance: 200 (GGSLRLNPADY) [compound 200]
- relative signal [%] (cyclic mimotopes): 8.5%

Substance: 37 (QWIDVRLRYNP) [compound 37]
- relative signal [%] (linear mimotopes): 13.4%

Substance: 48 (CNLKFNP) [compound 48]
- relative signal [%] (linear mimotopes): 11.0%

Substance: 125 (LRRNPADYG) [compound 125]
- relative signal [%] (cyclic mimotopes): 23.4%

Substance: 8 (GSLRYNP) [compound 8]
- relative signal [%] (linear mimotopes): 34.4%

Substance: 18 (NPADYGY) [compound 18]
- relative signal [%] (linear mimotopes): 21.2%

Substance: 114 (SLRINPADY) [compound 114]
- relative signal [%] (cyclic mimotopes): 28.0%

Substance: 72 (VRHRWNPAD) [compound 72]
- relative signal [%] (linear mimotopes): 8.1%

Substance: 111 (RINPADY) [compound 111]
- relative signal [%] (cyclic mimotopes): 28.9%

Substance: 129 (RGNPADYGG) [compound 129]
- relative signal [%] (cyclic mimotopes): 22.2%

Substance: 78 (VDYNLKFNP) [compound 78]
- relative signal [%] (linear mimotopes): 7.6%

Substance: 115 (DVRLRFNPADY) [compound 115]
- relative signal [%] (cyclic mimotopes): 27.7%

Substance: 28 (LRYNPAD) [compound 28]
- relative signal [%] (linear mimotopes): 15.9%

Substance: 52 (GGGSLRRNPAD) [compound 52]
- relative signal [%] (linear mimotopes): 10.6%

Substance: 42 (RLRWNPADYHG) [compound 42]
- relative signal [%] (linear mimotopes): 12.4%

Substance: 131 (DVRLRPNPADY) [compound 131]
- relative signal [%] (cyclic mimotopes): 21.3%

Substance: 179 (LRPNPADYG) [compound 179]
- relative signal [%] (cyclic mimotopes): 10.0%

Substance: 118 (RLRINPADY) [compound 118]
- relative signal [%] (cyclic mimotopes): 25.5%

Substance: 143 (RTNPADY) [compound 143]
- relative signal [%] (cyclic mimotopes): 14.6%

Substance: 80 (RTNPADY) [compound 80]
- relative signal [%] (linear mimotopes): 7.2%

Substance: 45 (NPADYGR) [compound 45]
- relative signal [%] (linear mimotopes): 12.2%

Substance: 147 (SLRFNPADY) [compound 147]
- relative signal [%] (cyclic mimotopes): 13.6%

Substance: 40 (LRINPADYG) [compound 40]
- relative signal [%] (linear mimotopes): 12.6%

Substance: 185 (RLRWNPADYGS) [compound 185]
- relative signal [%] (cyclic mimotopes): 9.7%

Substance: 137 (RVNPADY) [compound 137]
- relative signal [%] (cyclic mimotopes): 18.7%

Substance: 97 (LRPNPADYG) [compound 97]
- relative signal [%] (linear mimotopes): 6.1%

Substance: 60 (WNPADYH) [compound 60]
- relative signal [%] (linear mimotopes): 9.4%

Substance: 34 (WNPADYGHI) [compound 34]
- relative signal [%] (linear mimotopes): 13.7%

Substance: 53 (LRWNPADYGGF) [compound 53]
- relative signal [%] (linear mimotopes): 10.6%

Substance: 96 (QWVDCNLKFNP) [compound 96]
- relative signal [%] (linear mimotopes): 6.4%

Substance: 168 (VRLRWNPADYS) [compound 168]
- relative signal [%] (cyclic mimotopes): 10.5%

Substance: 54 (SLRWNPADYHG) [compound 54]
- relative signal [%] (linear mimotopes): 10.6%

Substance: 173 (LRWNPADYGGF) [compound 173]
- relative signal [%] (cyclic mimotopes): 10.3%

Substance: 101 (VRLRWNPADYP) [compound 101]
- relative signal [%] (cyclic mimotopes): 100.0%

Substance: 192 (WNPDDYR) [compound 192]
- relative signal [%] (cyclic mimotopes): 9.0%

Substance: 169 (DVRLRYNPADY) [compound 169]
- relative signal [%] (cyclic mimotopes): 10.5%

Substance: 74 (IDVRLRFNPAD) [compound 74]
- relative signal [%] (linear mimotopes): 7.9%

Substance: 86 (DVRLRWNPSDY) [compound 86]
- relative signal [%] (linear mimotopes): 6.8%

Substance: 31 (IDVRLRFNP) [compound 31]
- relative signal [%] (linear mimotopes): 15.0%

Substance: 95 (SLRFNPADY) [compound 95]
- relative signal [%] (linear mimotopes): 6.5%

Substance: 104 (WIDVRLRGNPA) [compound 104]
- relative signal [%] (cyclic mimotopes): 43.2%

Substance: 126 (RINPADYGG) [compound 126]
- relative signal [%] (cyclic mimotopes): 23.1%

Substance: 89 (SLRVNPADY) [compound 89]
- relative signal [%] (linear mimotopes): 6.7%

Substance: 154 (GSLRWNPADYP) [compound 154]
- relative signal [%] (cyclic mimotopes): 12.4%

Substance: 146 (GNPADYGGI) [compound 146]
- relative signal [%] (cyclic mimotopes): 13.7%

Substance: 46 (RLRFNPADY) [compound 46]
- relative signal [%] (linear mimotopes): 11.4%

Substance: 152 (GGGSLRRNPAD) [compound 152]
- relative signal [%] (cyclic mimotopes): 12.5%

Substance: 139 (NPADYGH) [compound 139]
- relative signal [%] (cyclic mimotopes): 15.8%

Substance: 68 (RPNPADYGG) [compound 68]
- relative signal [%] (linear mimotopes): 8.6%

Substance: 127 (LRINPADYG) [compound 127]
- relative signal [%] (cyclic mimotopes): 22.8%

Substance: 193 (LRWNPADYPGI) [compound 193]
- relative signal [%] (cyclic mimotopes): 8.9%

Substance: 79 (HWNPADY) [compound 79]
- relative signal [%] (linear mimotopes): 7.4%

Substance: 189 (LRGNPAD) [compound 189]
- relative signal [%] (cyclic mimotopes): 9.1%

Substance: 23 (NPADYGH) [compound 23]
- relative signal [%] (linear mimotopes): 18.1%

Substance: 10 (LRRNPADYG) [compound 10]
- relative signal [%] (linear mimotopes): 28.3%

Substance: 6 (WNPADYR) [compound 6]
- relative signal [%] (linear mimotopes): 40.6%

Substance: 56 (DVRLRFNPADY) [compound 56]
- relative signal [%] (linear mimotopes): 10.0%

Substance: 29 (LHWNPAD) [compound 29]
- relative signal [%] (linear mimotopes): 15.7%

Substance: 109 (DVRLRINPADY) [compound 109]
- relative signal [%] (cyclic mimotopes): 31.4%

Substance: 166 (RLRQNPADY) [compound 166]
- relative signal [%] (cyclic mimotopes): 10.6%

Substance: 69 (DVRLRINPADY) [compound 69]
- relative signal [%] (linear mimotopes): 8.5%

Substance: 108 (RLRGNPADY) [compound 108]
- relative signal [%] (cyclic mimotopes): 32.7%

Substance: 17 (NPDDYHG) [compound 17]
- relative signal [%] (linear mimotopes): 21.3%

Substance: 187 (VRLRLNPADYG) [compound 187]
- relative signal [%] (cyclic mimotopes): 9.7%

Substance: 16 (GSLRFNP) [compound 16]
- relative signal [%] (linear mimotopes): 21.6%

Substance: 59 (GSLRRNPAD) [compound 59]
- relative signal [%] (linear mimotopes): 9.5%

Substance: 19 (WNPADYP) [compound 19]
- relative signal [%] (linear mimotopes): 20.5%

Substance: 112 (LRLNPADYG) [compound 112]
- relative signal [%] (cyclic mimotopes): 28.6%

Substance: 75 (NPDDYGH) [compound 75]
- relative signal [%] (linear mimotopes): 7.7%

Substance: 100 (NPADYGV) [compound 100]
- relative signal [%] (linear mimotopes): 6.0%

Substance: 140 (RPNPADY) [compound 140]
- relative signal [%] (cyclic mimotopes): 15.6%

Substance: 93 (LRWNPADYPGI) [compound 93]
- relative signal [%] (linear mimotopes): 6.5%

Substance: 130 (SLRLNPADY) [compound 130]
- relative signal [%] (cyclic mimotopes): 21.8%

Substance: 87 (RIRWNPADY) [compound 87]
- relative signal [%] (linear mimotopes): 6.8%

Substance: 35 (YNLKFNP) [compound 35]
- relative signal [%] (linear mimotopes): 13.7%

Substance: 164 (RLHWNPADY) [compound 164]
- relative signal [%] (cyclic mimotopes): 10.8%

Substance: 138 (GSLRWNPADYR) [compound 138]
- relative signal [%] (cyclic mimotopes): 16.2%

Substance: 7 (LRFNPAD) [compound 7]
- relative signal [%] (linear mimotopes): 37.1%

Substance: 49 (SLRINPADY) [compound 49]
- relative signal [%] (linear mimotopes): 11.0%

Substance: 142 (VRLRRNPAD) [compound 142]
- relative signal [%] (cyclic mimotopes): 14.7%

Substance: 33 (NPADYGD) [compound 33]
- relative signal [%] (linear mimotopes): 14.1%

Substance: 81 (LRWNPADYHGI) [compound 81]
- relative signal [%] (linear mimotopes): 7.2%

Substance: 124 (RRNPADY) [compound 124]
- relative signal [%] (cyclic mimotopes): 23.5%

Substance: 177 (GSLRWNPADYN) [compound 177]
- relative signal [%] (cyclic mimotopes): 10.0%

Substance: 128 (GGSLRVNPADY) [compound 128]
- relative signal [%] (cyclic mimotopes): 22.5%

Substance: 120 (DVRLRGNPADY) [compound 120]
- relative signal [%] (cyclic mimotopes): 25.0%

Substance: 13 (LRLNPAD) [compound 13]
- relative signal [%] (linear mimotopes): 25.2%

Substance: 71 (GGGSLRFNPAD) [compound 71]
- relative signal [%] (linear mimotopes): 8.1%

Substance: 195 (SLRWNPADYHG) [compound 195]
- relative signal [%] (cyclic mimotopes): 8.7%

Substance: 85 (VDCNLKFNP) [compound 85]
- relative signal [%] (linear mimotopes): 6.8%

Substance: 11 (VRLRFNP) [compound 11]
- relative signal [%] (linear mimotopes): 27.1%

Substance: 82 (GGGSLRYNP) [compound 82]
- relative signal [%] (linear mimotopes): 7.1%

Substance: 135 (GGSLRGNPADY) [compound 135]
- relative signal [%] (cyclic mimotopes): 19.6%
